What all share (assay): DTP human tumour cell line panel, 48 h
The test system of assay [1] is ACHN.
The test system of assay [2] is SK-MEL-28.
In assay [3] the test system is OVCAR-5.
In assay [4] the test system is NCI-H460.
Assay [5] relates to A498.
For assay [6], the system named is Malme-3M.
The subject of assay [7] is SR.
Assay [8] concerns HOP-62.
For assay [9], the system named is NCI-H226.
The subject of assay [10] is A549.
Assay [11] deals with CCRF-CEM.
Assay [12] deals with SNB-19.
The subject of assay [13] is OVCAR-3.
Assay [14] relates to U-251.
Assay [15] concerns NCI-H522.
The subject of assay [16] is TK-10.
Assay [17] concerns OVCAR-8.

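A five-concentration, 48-hour dose response in 96-well plates underlies each endpoint, interpolated linearly between surrounding concentrations. GI50 is the concentration that inhibits growth by half.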 Calls of active or inactive are those of the source. Cut-off read from the data, not from the text of the source: active = GI50 up to about 1.1 µM and inactive = higher. Some results are limits rather than exact numbers.

One may read the GI50 as the concentration at which growth is held to half of that of the control.

Regarding `O=Cc1ccccc1OCCOc1cc(OCCOc2ccccc2C=O)c(OCCOc2ccccc2C=O)cc1OCCOc1ccccc1C=O`, the GI50 in assay [1] is 47.3 µM (inactive); in assay [2], > 100 µM (inactive); in assay [3], > 100 µM (inactive); in assay [4], > 67.9 µM (inactive); in [5] it was > 100 µM (inactive); in assay [6] it was > 100 µM (inactive). The GI50 in assay [7] was 39.8 µM (inactive); in assay [8], 70.3 µM (inactive); in [9], > 54.8 µM (inactive); in [10], > 100 µM (inactive); in [11], > 37.1 µM (inactive); in assay [12], > 31.6 µM (inactive). The GI50 was > 100 µM (inactive) in assay [13]; 12.6 µM (inactive) in [14]; > 86.9 µM (inactive) in [15]; 42.6 µM (inactive) in [16]; 47.1 µM (inactive) in [17].

For `C1CCC(N=C2N(C3CCCCC3)C(=NC3CCCCC3)N2C2CCCCC2)CC1`, the GI50 was > 100 µM (inactive) in assay [1]; > 100 µM (inactive) in assay [2]; > 100 µM (inactive) in [3]; > 100 µM (inactive) in assay [4]; > 10 µM (inactive) in assay [5]; > 100 µM (inactive) in assay [6]. Further, the GI50 in [7], in assay [8], in assay [10], in assay [11], in assay [12] and in [13] was > 100 µM (inactive) each time. The GI50 in assay [14], in assay [15], in [16] and in assay [17] was > 100 µM (inactive) in each case.

With `CCN(CC)C(=O)Cc1[nH][nH]c(=O)c1C(=O)N(CC)CC`, the GI50 in assay [1], in assay [2], in assay [4], in [5], in assay [6] and in [7] was > 100 µM (inactive) throughout. The GI50 in [8], in [9], in assay [10], in [11], in assay [12] and in [13] was > 100 µM (inactive) throughout. The GI50 in assay [14], in assay [15], in [16] and in [17] was > 100 µM (inactive) in each case.

As for `c1ccc(C2=NOC3C4CCC(C4)C23)cc1` (centres undefined), the GI50 in [1], in assay [2], in [3], in [4], in assay [5] and in assay [6] was > 100 µM (inactive) throughout. The GI50 in assay [7], in [8], in [9], in assay [10], in assay [11] and in assay [12] was > 100 µM (inactive) throughout. The GI50 in assay [13], in assay [14], in assay [15], in assay [16] and in assay [17] was > 100 µM (inactive) each time.

Turning to `COc1ccc(/C=C/C(=O)C(C)C)cc1`, the GI50 in [1] was 50.9 µM (inactive); in [2], > 100 µM (inactive); in assay [3] it was > 100 µM (inactive); in assay [4], 26.8 µM (inactive); in assay [5], 35.5 µM (inactive); in assay [6], 42 µM (inactive). The GI50 in assay [7] is 25.2 µM (inactive); in [8] it was 43.8 µM (inactive); in [10], 69.2 µM (inactive); in assay [11], 35.9 µM (inactive); in assay [12] it was 46.7 µM (inactive); in [13], 25.9 µM (inactive). Moreover, the GI50 was 34.1 µM (inactive) in [14], 20.6 µM (inactive) in [15], 92 µM (inactive) in [16] and 34.8 µM (inactive) in assay [17].

Turning to `O=C1Nc2cc([N+](=O)[O-])c(Br)cc2C1=O`, the GI50 in assay [1] was 18.2 µM (inactive); in assay [2], 21.3 µM (inactive); in assay [4] it was 30.5 µM (inactive); in assay [5] it was > 100 µM (inactive); in assay [6] it was 22.5 µM (inactive); in [7], 10.2 µM (inactive). In addition, the GI50 in [8] is 28.4 µM (inactive); in assay [9], 18.5 µM (inactive); in assay [10], 95.7 µM (inactive); in [11], 6.01 µM (inactive); in assay [12] it was > 10 µM (inactive); in [13], 18.1 µM (inactive). For the same compound, the GI50 was > 10 µM (inactive) in assay [14], 16.6 µM (inactive) in assay [15], > 100 µM (inactive) in assay [16] and 16.4 µM (inactive) in [17].

`CCOC(=O)CN1C(=O)c2cccc3cc([N+](=O)[O-])cc(c23)C1=O`: the GI50 in assay [1] is 10.1 µM (inactive); in [2], 2.85 µM (inactive); in assay [3] it was 15.5 µM (inactive); in [4], 4.89 µM (inactive); in [5], 16.8 µM (inactive); in assay [6], 2.45 µM (inactive). Moreover, the 50% growth inhibitory concentration (GI50) is 0.0525 µM (active) in assay [7]; 18.2 µM (inactive) in [8]; 10.7 µM (inactive) in [9]; 13.1 µM (inactive) in [10]; 0.287 µM (active) in [11]; 18.2 µM (inactive) in assay [12]. The GI50 in [13] is 4.7 µM (inactive); in [14], 7.55 µM (inactive); in [16], 17 µM (inactive); in assay [17] it was 1.78 µM (inactive).

Take `COC(=O)/C(=N/NC(N)=O)C(C(=O)OC)C(=O)C(=O)Nc1ccc(Cl)cc1` (centres undefined): the GI50 was > 100 µM (inactive) in assay [1]; > 100 µM (inactive) in assay [2]; > 100 µM (inactive) in [3]; > 71.3 µM (inactive) in assay [4]; > 100 µM (inactive) in [5]; > 100 µM (inactive) in [6]. Also, the GI50 was 20.8 µM (inactive) in assay [7]; > 100 µM (inactive) in [8]; > 100 µM (inactive) in assay [9]; > 100 µM (inactive) in assay [10]; > 50.1 µM (inactive) in assay [11]; > 100 µM (inactive) in assay [12]. In addition, the GI50 in assay [13], in assay [14], in [15], in assay [16] and in assay [17] was > 100 µM (inactive) in each case.

Turning to `ClC1c2ccccc2C2(c3ccccc3)OOC1(c1ccccc1)O2` (centres undefined), the GI50 in [1] was 1.55 µM (inactive); in assay [2], 1.95 µM (inactive); in assay [3], 4.24 µM (inactive); in [4], 1.64 µM (inactive); in assay [5], 2.39 µM (inactive); in assay [6], 2.63 µM (inactive). Besides, the GI50 in assay [7] was 1.32 µM (inactive); in assay [8], 10.3 µM (inactive); in assay [9], 2.32 µM (inactive); in [10], 1.86 µM (inactive); in [12], 1.7 µM (inactive); in assay [13], 1.77 µM (inactive). Moreover, the GI50 in assay [14] was 1.9 µM (inactive); in assay [15], 0.243 µM (active); in assay [16] it was 2.58 µM (inactive); in assay [17], 2.03 µM (inactive).

With `Cc1c2cc[n+](COC(=O)c3ccccc3)cc2c(C)c2c1[nH]c1ccccc12`, the GI50 in assay [1] was 0.532 µM (active); in assay [2] it was 1.64 µM (inactive); in assay [3], 0.824 µM (active); in [5] it was 1.23 µM (inactive); in assay [6] it was 1.46 µM (inactive); in assay [7] it was 0.212 µM (active). Also, the GI50 in [8] is 1.31 µM (inactive); in assay [10], 0.299 µM (active); in assay [11], 0.434 µM (active); in [12] it was 0.778 µM (active); in assay [13], 1.37 µM (inactive); in assay [14], 0.515 µM (active). For the same compound, the GI50 in [15] is 1.08 µM (active); in [16], 1.58 µM (inactive); in assay [17], 0.551 µM (active).

Consider `CCCCCCCCCC(=O)OCC1OC(n2cc(F)c(=O)[nH]c2=O)C(N)C(OC(=O)CCCCCCCCC)C1O` (centres undefined), for which the GI50 in assay [1] is 40.2 µM (inactive); in assay [2], 16.7 µM (inactive); in assay [4], 19.4 µM (inactive); in assay [5] it was 15.5 µM (inactive); in assay [6], 16.9 µM (inactive); in assay [7] it was 19.7 µM (inactive). The GI50 was 37.2 µM (inactive) in assay [8]; 18 µM (inactive) in assay [10]; 18.5 µM (inactive) in [11]; 17.4 µM (inactive) in assay [12]; 18.6 µM (inactive) in assay [13]; 17.1 µM (inactive) in assay [14]. Also, the figures for the GI50 in assay [15], in assay [16] and in assay [17] were 14.6 µM (inactive), 36.1 µM (inactive) and 18.2 µM (inactive), respectively.

On to `CC(=O)NC1=C(C)C(=O)c2c(nc3n2CCC3O)C1=N` (centres undefined), for which the GI50 in assay [1] was 16.3 µM (inactive); in assay [2] it was 17.2 µM (inactive); in assay [3] it was 21.6 µM (inactive); in [4] it was 22 µM (inactive); in assay [5], 27.2 µM (inactive); in assay [6], 6.41 µM (inactive). The GI50 in [7] was > 100 µM (inactive); in assay [8], 38.8 µM (inactive); in assay [9], 17.4 µM (inactive); in assay [10] it was 30.8 µM (inactive); in [11], 2.93 µM (inactive); in [12] it was 25.1 µM (inactive). For the same compound, the GI50 in assay [13] was 2.98 µM (inactive); in assay [14] it was 13.2 µM (inactive); in assay [15], 6.75 µM (inactive); in [16] it was 29.9 µM (inactive); in [17], 4.55 µM (inactive).

These data come from ChEMBL document CHEMBL1201862, “PubChem BioAssay data set” (2004).
